# Laboratory results taken from PubChem BioAssay AID1259418 (Broad Institute, 2018).
# Values joined by “and” are separate entries in the source; they are usually repeats but may differ in a detail not shown here. Equal entries are not always repeated. Inconclusive results are not listed. Active and inactive are the calls of the source.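 Rule for the calls: active = fitted half-maximal concentration of signal decrease at or below twice the sample's top tested concentration; inconclusive = flat curve between -70 and -30 percent, or poor fit; inactive = flat within 30 percent, signal rise, or potency above limit.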
# Target: T. gondii ME49Luc in IFN-y HeLa, luciferase, 72 h
# Test: inhibitors of Toxoplasma growth in IFN-γ-primed HeLa – cell-based, ME49Luc, luciferase, 72 h, dose response (AID 1259418)
row,SMILES,AC50
1,N#Cc1cccc(-c2ccc3c(c2)[C@@H]2[C@@H](CCN2C(=O)c2ccccc2F)[C@@H](CO)N3)c1,23.3 µM
2,Cc1ccc(-c2nc(CN3CCN(C(=O)NCCc4ccccc4)CC3)c(C)o2)cc1,> 39 µM (inactive)
3,COc1ccc(-c2nc(NCc3cccnc3)c3ccccc3n2)cc1,21.7 µM
4,Cc1ccc(-c2csc(-c3cccn3CC(=O)NCCN3CCC(C)CC3)n2)cc1,6.43 µM
5,COc1ccccc1-c1noc(-c2nnn(Cc3nc(-c4ccc(C)cc4)oc3C)c2C)n1,15 µM
6,COc1ccc2c(c1)NC1(CCN(C(=O)CCc3cc(OC)c(OC)c(OC)c3)CC1)c1cccn1-2,> 39 µM (inactive)
7,CC(C)C#Cc1ccc([C@H]2[C@@H](C#N)N(C(=O)c3cccc(F)c3)[C@@H]2CO)cc1,22 µM
8,CCCCNC(=O)CCC1N=C2c3ccccc3N=C(SCc3ccc(F)cc3)N2C1=O (stereo not given),24.8 µM
9,COc1cc([C@@H]2c3cc4c(cc3C(OC3O[C@@H]5COC(C)O[C@H]5[C@H](O)[C@H]3O)C3COC(=O)[C@@H]32)OCO4)cc(OC)c1O (stereo not given in full),> 39 µM (inactive)
10,Cc1cccc(OCC(=O)N2CCC3(CC2)Nc2ccc(Cl)cc2-n2cccc23)c1,8.26 µM and 14.9 µM
11,C/C=C/c1ccc([C@H]2[C@@H](CO)N3CCCCN(S(=O)(=O)c4ccc(OC)cc4)C[C@@H]23)cc1,18.4 µM
12,Cn1c2ccccc2c2c1cc(C(=O)N1CCN(c3ccncc3)CC1)n2S(C)(=O)=O,26.6 µM
13,CCc1c(C)sc2c1CCN(Cc1nc(-c3cccc(C)c3)oc1C)C2c1ccccc1 (stereo not given),9.68 µM
14,Cc1ccc(S(=O)(=O)Nc2ccc3c(c2)C(=O)N([C@@H](C)CO)C[C@H](C)[C@H](CN(C)Cc2ccc(C(F)(F)F)cc2)O3)cc1,18.2 µM
15,Cc1ccccc1S(=O)(=O)N1CC[C@H]2[C@H](CO)Nc3ccc(-c4ccc(F)cc4)cc3[C@H]21,28.5 µM
16,COc1ccc2c(c1)NC1(CCN(C(=O)c3c(F)cccc3F)CC1)c1cccn1-2,> 39 µM (inactive)
17,Cc1nc2c(cnn2-c2ccccc2)c(=O)n1-c1cccc2ccccc12,1.32 µM
18,COc1ccc(S(=O)(=O)N(Cc2nc(-c3ccccc3OC)oc2C)c2ccccc2OC)cc1,13.7 µM
19,COc1ccc(-c2nc(Nc3ccc(C)cc3)c3ccccc3n2)cc1,19.1 µM
20,COC1(C)CC2C(CC1OC(=O)c1cc([N+](=O)[O-])cc([N+](=O)[O-])c1)C2(C)C (stereo not given),12.4 µM
21,CCc1cc(C(=O)Nc2ccc(C)cc2-c2cc(C)[nH]n2)c2c(C)noc2n1,11.8 µM
22,O=C(Nc1ccc(-c2nc(-c3ccccc3)co2)cc1)c1cccc(Cl)c1,35.3 µM
23,O=S(=O)(c1ccc2c(c1)CCCC2)N1CCC2(CC1)NCCN=C2NC1CCCCCC1,9.95 µM

row,SMILES,AC50
1,CCOc1ccccc1N(Cc1nc(-c2ccc(OC)cc2)oc1C)S(=O)(=O)c1cccs1,7.45 µM
2,Cc1ccc(NC(=O)CN2CCC3(CC2)N=C(c2cccc(Cl)c2)C(=O)N3)cc1,28 µM
3,Cc1ccccc1-c1ccc(C2[C@H]3CNC[C@@H]2N3Cc2ccc3c(c2)OCO3)cc1 (stereo not given in full),> 39 µM (inactive)
4,Cc1ccc(-c2nc(CN(c3ccccc3)S(=O)(=O)c3ccccc3)c(C)o2)cc1,10.3 µM
5,O=C(CC1N=C2c3ccccc3N=C(SCc3ccc(F)cc3)N2C1=O)NCc1ccco1 (stereo not given),20.5 µM
6,CCOC(=O)Cn1c(C)c(CN2CCCC2c2cc(C(C)C)no2)c2ccccc21 (stereo not given),15.5 µM
7,Clc1ccc(-c2nc(N3CCC(c4ccccc4)C3)c3ccccc3n2)cc1 (stereo not given),32.4 µM
8,COc1ccc(NC(=O)N2CCCCN3[C@H](C2)[C@@H](c2ccc(-c4ccccc4F)cc2)[C@@H]3CO)cc1,32.8 µM
9,C/C=C/c1ccc(C2[C@H]3CNC[C@@H]2N3C(=O)NC2CCCCC2)cc1 (stereo not given in full),9.23 µM and 7.74 µM
10,Cc1ccc(C)c(NC(=O)N2CCN(Cc3nc(-c4cccc(Cl)c4)oc3C)CC2)c1,> 39 µM (inactive)
11,COc1ccccc1C1CN(Cc2cccc(O)c2)Cc2ccccc2O1 (stereo not given),34.4 µM and 27.5 µM
12,N#Cc1cccc(-c2ccc(C3[C@@H]4CN(C(=O)Nc5ccc(C(F)(F)F)cc5)C[C@H]3N4)cc2)c1 (stereo not given in full),5.28 µM
13,Cc1ccc(-c2coc(-c3ccc(NC(=O)Nc4ccc(Br)cc4)cc3)n2)cc1,> 39 µM (inactive)
14,COc1ccc(-c2nc(NCCCN3CCN(c4ccccc4)CC3)c3ccccc3n2)cc1,29.8 µM
15,Cc1nc(-c2cc(S(=O)(=O)NCCCN3CCCC(C)C3)c(C)s2)sc1C (stereo not given),33.7 µM
16,O=C(Nc1cccc(F)c1)N1CCCCN2[C@H](CO)[C@H](c3ccc(C#Cc4cccnc4)cc3)[C@@H]2C1,2.07 µM and 1.05 µM
17,O=C(CCc1ccccc1)N1CCC2(CC1)Nc1ccc(Cl)cc1-n1cccc12,27.4 µM
18,O=S(=O)(c1ccc2c(c1)CCCC2)N1CCC2(CC1)NCCN=C2NC1CCCCC1,11.7 µM
19,CCOc1ccccc1N(Cc1nc(-c2ccccc2OC)oc1C)S(=O)(=O)c1cccs1,12.2 µM
20,COc1ccc(-c2nc(CN(c3ccc(C)cc3)S(=O)(=O)c3cccs3)c(C)o2)cc1OC,15 µM
21,O=C(c1ccc(F)cc1)N1CC(=O)N2[C@H](C1)[C@@H](c1ccc(C#CCC3CCCC3)cc1)[C@@H]2CO,20.4 µM and 10.1 µM
22,O=C(CC1CC1)N1CC[C@@H]2[C@@H](CO)Nc3ccc(-c4ccc(F)cc4)cc3[C@@H]21,21.1 µM
23,CN(c1ccc(F)cc1)c1nc(-c2ccc(Cl)cc2)nc2ccccc12,13.9 µM

row,SMILES,AC50
1,O=S(=O)(c1ccc2c(c1)CCCC2)N1CCC2(CC1)NCCN=C2NCc1ccc2c(c1)OCO2,11.1 µM
2,CCCNC(=O)N1[C@H](CO)[C@@H](c2ccc(-c3ccccc3F)cc2)[C@@H]1C#N,19.9 µM
3,C[C@H](CO)N1C[C@H](C)[C@H](CN(C)C(=O)Nc2ccc(C(F)(F)F)cc2)Oc2c(NC(=O)c3ccc(-c4nccs4)cc3)cccc2C1=O,18 µM
4,COc1cccc(-c2nc(C)c(-c3ccc(SCc4cccc(Cl)c4)nn3)s2)c1,11.1 µM
5,COc1ccccc1-c1nc(CN(c2ccccc2OC)S(=O)(=O)c2ccccc2)c(C)o1,5.18 µM
6,Cc1cc(C)cc(S(=O)(=O)N2CCC3(CC2)NCCN=C3NCc2ccc(F)cc2)c1,20.5 µM
7,CCCCN(C)C(=O)c1cnc(-c2noc3cc(NCC4CC4)ccc23)s1,6.44 µM and 21.7 µM
8,CCOc1ccc(NC(=O)CN2CCC3(CC2)N=C(c2ccc(Cl)cc2)C(=O)N3)cc1,> 39 µM (inactive)
9,COc1ccc(NC(=O)CN2CCC3(CC2)N=C(c2cccc(Cl)c2)C(=O)N3)cc1,18.2 µM
10,O=C(C[C@H]1CC[C@H]2[C@@H](COC[C@@H](O)CN2Cc2ccc(Oc3ccccc3)cc2)O1)N1CCN(c2ccccc2)CC1,15.2 µM and 32.3 µM
11,O=C(CCCCCCNC(=O)c1cnc(N(c2ccccc2)c2ccccc2)nc1)NO,14.8 µM
12,CCOc1ccccc1NS(=O)(=O)c1cc2c3c(c1)CCC(=O)N3CCC2,26.1 µM
13,COc1cccc(NC(=O)N2CC(=O)N3[C@H](CO)[C@@H](c4ccc(C#CCC5CCCC5)cc4)[C@H]3C2)c1,> 39 µM (inactive)
14,COc1cccc(NC(=O)N2CC(=O)N3[C@H](CO)[C@@H](c4ccc(C#CCC5CCCC5)cc4)[C@@H]3C2)c1,11.9 µM and 9.9 µM
15,COc1ccccc1CNC(=O)CCC1N=C2c3ccccc3N=C(SCc3cccc(F)c3)N2C1=O (stereo not given),> 39 µM (inactive)
16,COc1cc(Nc2nc(SCc3ccc(F)cc3)nc3ccccc23)cc(OC)c1,13.2 µM
17,CCOc1ccc(-c2nc(CN(c3ccccc3OC)S(=O)(=O)c3ccccc3)c(C)o2)cc1,8.3 µM
18,CCOC(=O)c1ccc(NC(=O)N2CCN(Cc3nc(-c4ccc(C)cc4)oc3C)CC2)cc1,37.2 µM
19,CCOc1ccccc1N(Cc1nc(-c2ccc(OC)cc2)oc1C)S(=O)(=O)c1ccccc1,6.35 µM
20,Clc1ccccc1CSc1nc(NCc2ccccc2)c2ccccc2n1,> 39 µM (inactive)
21,CCCCc1ccc(Nc2ncnc3c2cnn3-c2ccc(C)cc2C)cc1,8.05 µM
22,CCN1CCN(CCCNc2nc(-c3ccc(Cl)cc3)nc3ccccc23)CC1,> 20 µM (inactive)
23,Cc1cccc(-c2nc(Cn3nnc(-c4nc(-c5cccs5)no4)c3C)c(C)o2)c1,> 39 µM (inactive)

row,SMILES,AC50
1,COc1cccc(S(=O)(=O)N2CCCCN3[C@H](C2)[C@@H](c2ccc(C#CCC(C)C)cc2)[C@@H]3CO)c1,15.3 µM
2,COc1cccc(NC(=O)N2CCN(Cc3nc(-c4ccc(C)cc4)oc3C)CC2)c1,22 µM
3,CC(C)Cc1ccc(S(=O)(=O)N2CCC3(CC2)NCCN=C3NCc2ccccc2)cc1,14.4 µM
4,CCOc1ccc(-c2nc(CN(c3ccc(OC)cc3)S(=O)(=O)c3ccccc3)c(C)o2)cc1,21.1 µM
5,CCN1CCCC1CNC(=O)C1CCN(Cc2cc3ccccc3n2Cc2ccc(F)cc2)CC1 (stereo not given),21.2 µM
6,Cc1ccc(-c2nc(CN3CCN(C(=O)Nc4ccccc4)CC3)c(C)o2)cc1,17.5 µM
7,COc1ccc(NC(=O)N2CCCCN3[C@H](CO)[C@@H](c4ccc(-c5ccccc5F)cc4)[C@@H]3C2)cc1,29.6 µM
8,CC(C)NC(=O)N1CC(=O)N2[C@H](CO)[C@@H](c3ccc(/C=C/c4ccccc4)cc3)[C@H]2C1,26.5 µM and 8.87 µM
9,CCCNC(=O)N1C[C@@H]2N[C@H](C1)C2c1ccc(-c2ccc(OC)cc2)cc1 (stereo not given in full),17.9 µM and 23.9 µM
10,COc1ccc(-c2nc(N(CCCN3CCOCC3)Cc3ccco3)c3ccccc3n2)cc1,9.51 µM
11,COc1ccc(-c2nc(N3CCC(N4CCCCC4)CC3)c3ccccc3n2)cc1,10.6 µM
12,CCc1c2c(nc3ccc(OC(=O)N4CCC(N5CCCCC5)CC4)cc13)-c1cc3c(c(=O)n1C2)COC(=O)[C@]3(O)CC,21 µM
13,O=C(CCC1N=C2c3ccccc3N=C(SCc3ccc(F)cc3)N2C1=O)NCCc1ccccc1 (stereo not given),37.8 µM
14,Cc1nc(CCNC(=O)[C@H]2CCCN2C(=O)c2cccc(F)c2)cs1,29.2 µM
15,CC(C)(C)NC(=O)[C@@H]1CC2CCCCC2CN1C[C@@H](O)[C@H](Cc1ccccc1)NC(=O)[C@H](CC(N)=O)NC(=O)c1ccc2ccccc2n1 (stereo not given in full),17.8 µM
16,O=C(c1cccc(F)c1)N1CC(=O)N2[C@H](CO)[C@H](c3ccc(/C=C/c4ccccc4)cc3)[C@@H]2C1,19.6 µM
17,O=C(NC1CCCC1)N1CCCCN2[C@H](CO)[C@@H](c3ccc(-c4cccnc4)cc3)[C@H]2C1,> 39 µM (inactive)
18,Cc1cccc(N2CCN(C(=O)CC3Nc4c5ccccc5nc(=S)n4C3=O)CC2)c1C (stereo not given),26.9 µM
19,COc1ccc(Cc2nnc(NC(=O)CC(C)C)s2)cc1,11.3 µM
20,CCCNC(=O)N1CC(=O)N2[C@@H](CO)[C@@H](c3ccc(C#Cc4cccc(OC)c4)cc3)[C@@H]2C1,19.2 µM
21,O=C(C1CCCCC1)N1CCC2(CC1)Nc1ccc(Cl)cc1-n1cccc12,24.7 µM
